Assay results as given in patent US20170355705A1 (GlaxoSmithKline Intellectual Property (No.2) Limited, priority 2014, published 2017).

Target: T1, SIRT1 (Homo sapiens, UniProt Q96EB6)
T1 sequence (Q96EB6 1-747): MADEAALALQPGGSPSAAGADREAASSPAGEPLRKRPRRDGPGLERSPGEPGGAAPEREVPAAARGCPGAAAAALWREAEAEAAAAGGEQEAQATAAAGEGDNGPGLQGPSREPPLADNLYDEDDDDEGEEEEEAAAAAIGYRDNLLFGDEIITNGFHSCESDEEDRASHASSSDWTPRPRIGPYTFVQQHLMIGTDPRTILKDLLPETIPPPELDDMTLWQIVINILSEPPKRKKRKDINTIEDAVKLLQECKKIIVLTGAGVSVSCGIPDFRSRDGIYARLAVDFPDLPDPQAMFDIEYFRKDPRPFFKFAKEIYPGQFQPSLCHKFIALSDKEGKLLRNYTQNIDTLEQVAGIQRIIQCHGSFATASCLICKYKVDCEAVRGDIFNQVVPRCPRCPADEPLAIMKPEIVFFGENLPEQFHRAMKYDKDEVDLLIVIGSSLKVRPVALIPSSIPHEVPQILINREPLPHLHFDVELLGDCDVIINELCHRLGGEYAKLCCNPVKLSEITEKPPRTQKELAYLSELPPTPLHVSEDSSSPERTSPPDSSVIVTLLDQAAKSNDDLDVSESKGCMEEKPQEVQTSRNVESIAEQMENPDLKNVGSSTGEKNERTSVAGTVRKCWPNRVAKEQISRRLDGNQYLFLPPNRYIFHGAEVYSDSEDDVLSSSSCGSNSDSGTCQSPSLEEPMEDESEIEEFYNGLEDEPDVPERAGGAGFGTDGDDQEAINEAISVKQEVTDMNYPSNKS
Assay: Trp mass spectrometry assay of SIRT1 activity (EC1.5, percent maximum activation)
Type: biochemical
Settings: Trp mass spectrometry assay; for TRP Activity (EC1.5): EC1.5 = concentration giving 150% activation of SIRT1; for TRP MAX RESP (percent maximum fold activation): percent maximum activation of SIRT1
Method in brief: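 Activation values derive from mass-spectrometric measurement of NAD-dependent deacetylation product after a 25 min reaction of bacterially expressed His-tagged SIRT1 with a fluorophore-labelled Trp peptide.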

TRP Activity (EC1.5) | TRP MAX RESP (percent maximum fold activation) | SMILES
A (EC1.5<1 μM) | A (Fold activation ≧150%) | O=C(Nc1cccc(OCCO)n1)N1c2nc(-c3cccc(C(F)(F)F)c3)c(Cl)cc2N2CC[C@H]1C2 [Example 79, (4S)-8-chloro-N-(6-(2-hydroxyethoxy)pyridin-2-yl)-7-(3-(trifluoromethyl)phenyl)-3,4-dihydro-1,4-methanopyrido[2,3-b][1,4]diazepine-5(2H)-carboxamide]
A (EC1.5<1 μM) | A (Fold activation ≧150%) | O=C(Nc1cnc(OC[C@@H](O)CO)nc1)N1c2nc(-c3cccc(C(F)(F)F)c3)c(Cl)cc2N2CC[C@H]1C2 [Example 80, (4S)-8-chloro-N-(2-((S)-2,3-dihydroxypropoxy)pyrimidin-5-yl)-7-(3-(trifluoromethyl)phenyl)-3,4-dihydro-1,4-methanopyrido[2,3-b][1,4]diazepine-5(2H)-carboxamide]
B (EC1.5 1-25 μM) | A (Fold activation ≧150%) | O=C(Nc1ccc(OC[C@@H](O)CO)cn1)N1c2nc(-c3cccc(C(F)(F)F)c3)c(Cl)cc2N2CC[C@H]1C2 [Example 81, (4S)-8-chloro-N-(5-((S)-2,3-dihydroxypropoxy)pyridin-2-yl)-7-(3-(trifluoromethyl)phenyl)-3,4-dihydro-1,4-methanopyrido[2,3-b][1,4]diazepine-5(2H)-carboxamide]
B (EC1.5 1-25 μM) | A (Fold activation ≧150%) | O=C(Nc1ncc(OC[C@H](O)CO)cn1)N1c2nc(-c3cccc(C(F)(F)F)c3)c(Cl)cc2N2CC[C@H]1C2 [Example 82, (4S)-8-chloro-N-(5-((R)-2,3-dihydroxypropoxy)pyrimidin-2-yl)-7-(3-(trifluoromethyl)phenyl)-3,4-dihydro-1,4-methanopyrido[2,3-b][1,4]diazepine-5(2H)-carboxamide]
B (EC1.5 1-25 μM) | A (Fold activation ≧150%) | O=C(Nc1ncc(OC[C@@H](O)CO)cn1)N1c2nc(-c3cccc(C(F)(F)F)c3)c(Cl)cc2N2CC[C@H]1C2 [Example 83, (4S)-8-chloro-N-(5-((S)-2,3-dihydroxypropoxy)pyrimidin-2-yl)-7-(3-(trifluoromethyl)phenyl)-3,4-dihydro-1,4-methanopyrido[2,3-b][1,4]diazepine-5(2H)-carboxamide]
A (EC1.5<1 μM) | A (Fold activation ≧150%) | Cc1cc(-c2cccc(C(F)(F)F)c2)nc2c1N1CC[C@@H](C1)N2C(=O)Nc1ccnc(OC[C@@H](O)CO)c1 [Example 87, (4S)-N-(2-((S)-2,3-dihydroxypropoxy)pyridin-4-yl)-9-methyl-7-(3-(trifluoromethyl)phenyl)-3,4-dihydro-1,4-methanopyrido[2,3-b][1,4]diazepine-5(2H)-carboxamide]
B (EC1.5 1-25 μM) | A (Fold activation ≧150%) | Cc1cc(-c2nc3c(cc2Cl)N2CC[C@@H](C2)N3C(=O)Nc2cccc(OC[C@@H](O)CO)n2)ccn1 [Example 93, (4S)-8-chloro-N-(6-((S)-2,3-dihydroxypropoxy)pyridin-2-yl)-7-(2-methylpyridin-4-yl)-3,4-dihydro-1,4-methanopyrido[2,3-b][1,4]diazepine-5(2H)-carboxamide]
C (EC1.5>25 μM) | B (Fold Activation <150%) | Cc1cc(-c2nc3c(cc2Cl)N2CC[C@@H](C2)N3C(=O)Nc2ccnc(OC[C@@H](O)CO)n2)ccn1 [Example 94, (4S)-8-chloro-N-(2-((S)-2,3-dihydroxypropoxy)pyrimidin-4-yl)-7-(2-methylpyridin-4-yl)-3,4-dihydro-1,4-methanopyrido[2,3-b][1,4]diazepine-5(2H)-carboxamide]
C (EC1.5>25 μM) | B (Fold Activation <150%) | Cc1cc(-c2nc3c(cc2Cl)N2CC[C@@H](C2)N3C(=O)Nc2ccnc(OC[C@H](O)CO)n2)ccn1 [Example 96, (4S)-8-chloro-N-(2-((R)-2,3-dihydroxypropoxy)pyrimidin-4-yl)-7-(2-methylpyridin-4-yl)-3,4-dihydro-1,4-methanopyrido[2,3-b][1,4]diazepine-5(2H)-carboxamide]

Continued, compound first:

SMILES | TRP Activity (EC1.5) | TRP MAX RESP (percent maximum fold activation)
Cc1cc(-c2cc(C)c3c(n2)N(C(=O)Nc2cccnc2)[C@H]2CCN3C2)ccn1 [Example 84, (4S)-9-methyl-7-(2-methylpyridin-4-yl)-N-(pyridin-3-yl)-3,4-dihydro-1,4-methanopyrido[2,3-b][1,4]diazepine-5(2H)-carboxamide] | A (EC1.5<1 μM) | A (Fold activation ≧150%)
Cc1ncc(-c2ccnc(NC(=O)N3c4nc(-c5cccc(C(F)(F)F)c5)cc(C)c4N4CC[C@H]3C4)c2)o1 [Example 86, (4S)-9-methyl-N-(4-(2-methyloxazol-5-yl)pyridin-2-yl)-7-(3-(trifluoromethyl)phenyl)-3,4-dihydro-1,4-methanopyrido[2,3-b][1,4]diazepine-5(2H)-carboxamide] | A (EC1.5<1 μM) | A (Fold activation ≧150%)
Cc1ccc2c(NC(=O)N3c4nc(-c5cccc(C(F)(F)F)c5)c(Cl)cc4N4CC[C@H]3C4)n[nH]c2n1 [Example 88, (4S)-8-chloro-N-(6-methyl-1H-pyrazolo[3,4-b]pyridin-3-yl)-7-(3-(trifluoromethyl)phenyl)-3,4-dihydro-1,4-methanopyrido[2,3-b][1,4]diazepine-5(2H)-carboxamide] | A (EC1.5<1 μM) | A (Fold activation ≧150%)
Cc1cc2c(nc1-c1cccc(C(F)F)c1)N(C(=O)Nc1ccnc(OC[C@@H](O)CO)c1)[C@H]1CCN2C1 [Example 89, (4S)-7-(3-(difluoromethyl)phenyl)-N-(2-((S)-2,3-dihydroxypropoxy)pyridin-4-yl)-8-methyl-3,4-dihydro-1,4-methanopyrido[2,3-b][1,4]diazepine-5(2H)-carboxamide] | A (EC1.5<1 μM) | A (Fold activation ≧150%)
CCn1cc(-c2nc3c(cc2Cl)N2CC[C@@H](C2)N3C(=O)Nc2ccnc(OC[C@H](O)CO)c2)cn1 [Example 90, (4S)-8-chloro-N-(2-((R)-2,3-dihydroxypropoxy)pyridin-4-yl)-7-(1-ethyl-1H-pyrazol-4-yl)-3,4-dihydro-1,4-methanopyrido[2,3-b][1,4]diazepine-5(2H)-carboxamide] | B (EC1.5 1-25 μM) | A (Fold activation ≧150%)
Cc1cc(-c2nc3c(c(C)c2C)N2CC[C@@H](C2)N3C(=O)Nc2cccnc2)ccn1 [Example 91, (4S)-8,9-dimethyl-7-(2-methylpyridin-4-yl)-N-(pyridin-3-yl)-3,4-dihydro-1,4-methanopyrido[2,3-b][1,4]diazepine-5(2H)-carboxamide] | B (EC1.5 1-25 μM) | A (Fold activation ≧150%)
Cc1cc(-c2nc3c(cc2C#N)N2CC[C@@H](C2)N3C(=O)Nc2ccccn2)ccn1 [Example 92, (4S)-8-cyano-7-(2-methylpyridin-4-yl)-N-(pyridin-2-yl)-3,4-dihydro-1,4-methanopyrido[2,3-b][1,4]diazepine-5(2H)-carboxamide] | B (EC1.5 1-25 μM) | A (Fold activation ≧150%)
Cc1cc(-c2nc3c(cc2Cl)N2CC[C@@H](C2)N3C(=O)Nc2cc(OC[C@H](O)CO)ncn2)ccn1 [Example 95, (4S)-8-chloro-N-(6-((R)-2,3-dihydroxypropoxy)pyrimidin-4-yl)-7-(2-methylpyridin-4-yl)-3,4-dihydro-1,4-methanopyrido[2,3-b][1,4]diazepine-5(2H)-carboxamide] | C (EC1.5>25 μM) | B (Fold Activation <150%)
Cc1cc(-c2nc3c(cc2Cl)N2CC[C@@H](C2)N3C(=O)Nc2cncc(OC[C@H](O)CO)n2)ccn1 [Example 97, (4S)-8-chloro-N-(6-((R)-2,3-dihydroxypropoxy)pyrazin-2-yl)-7-(2-methylpyridin-4-yl)-3,4-dihydro-1,4-methanopyrido[2,3-b][1,4]diazepine-5(2H)-carboxamide] | C (EC1.5>25 μM) | B (Fold Activation <150%)
